Patent US10071976B2, “Small molecule fatty acid synthase inhibitors” (Sanford Burnham Prebys Medical Discovery Institute, priority 2014, dated 2018)
pIC50: −log10 of the molar value. Where “and” joins values, the source holds several entries; their conditions need not be identical. Equal entries are not always repeated.

What was measured:
[1] = biological target: T1, ACOT4 (Homo sapiens, UniProt Q8N9L9); assay: FP-PEG-TAMRA labeling of recombinant ACOT4; assay type: binding; conditions: recombinant enzyme, 20 μM final, pH 7.8
T1 sequence (Q8N9L9 1-421): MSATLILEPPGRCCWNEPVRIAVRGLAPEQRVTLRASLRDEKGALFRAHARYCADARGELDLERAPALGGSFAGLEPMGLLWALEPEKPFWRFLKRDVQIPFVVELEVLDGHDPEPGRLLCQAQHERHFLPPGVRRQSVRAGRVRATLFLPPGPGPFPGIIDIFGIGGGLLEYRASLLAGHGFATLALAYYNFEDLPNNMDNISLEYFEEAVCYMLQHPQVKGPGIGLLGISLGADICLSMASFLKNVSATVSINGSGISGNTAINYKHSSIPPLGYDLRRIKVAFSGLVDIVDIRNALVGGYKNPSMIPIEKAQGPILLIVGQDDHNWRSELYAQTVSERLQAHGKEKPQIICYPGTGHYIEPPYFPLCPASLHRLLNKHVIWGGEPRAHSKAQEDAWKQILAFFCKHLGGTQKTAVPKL
Protocol: (§1) Additionally, studies were performed to test the selectivity of Compounds 1, 16, 22, and 37 for the FASN thioesterase over its most closely related human homolog, the enzyme called ACOT4 (see FIG. 3). Both proteins were mixed and pretreated with the compound (20 μM final, pH 7.8) before addition of the fluorescent activity probe FP-PEG-TAMRA. Respective fluorescence of the bands was detected on a Hitachi flatbed scanner and a greyscale version used for quantitative analysis using ImageJ. Recombinant forms of each enzyme were incubated with compound 16, compound 1, compound 37, and compound 22. FP-TAMRA was included in this mixture to label the active site of the FASN thioesterase and ACOT4. […] These findings further attest to the high degree of selectivity of compounds 1, 16, 37 and 22 for the FASN thioesterase.

[2] = biological target: T2, FASN-TE (Homo sapiens, UniProt P49327); assay: In-vitro biochemical assay measuring FAS-TE inhibition (OMFH substrate, fluorescence)
Protocol: Min wells: Substrate+No enzyme+DMSO, Max wells: Substrate+Enzyme+DMSO, Sample wells: Substrate+Enzyme+Test compounds, Reference compound: Orlistat (make a fresh 10 mM stock in DMSO each time). 384-well black, low-volume plate (Greiner #784076)
Assay Protocol: • 1) ECHO transfer 160 nL of 125× Compound (or DMSO for control wells) per well. • 2) For Max and Sample wells: Add 10 μL of Enzyme (2×; 1.8 μM) prepared in RXN Buffer. For Min wells: Add 10 μL of RXN Buffer (No Enzyme). • 3) For all wells: Add 10 μL of Substrate (2×; 20 μM) prepared in diH2O+10% DMSO. • 4) Centrifuge plate for 1 minute at 1,000 rpm. • 5) Measure fluorescence every 5 minutes for 1-1.5 hours using the BMG POLARstar (ex 485 nm/em 520 nm; Gain=1015; 25 flashes). • 6) All volumes can be adjusted but the final DMSO concentration should be kept at about 6%.
Data Analysis: • 1) Calculate slopes and express as % Activity (Min wells=0%; Max wells=100%). • 2) Then, using Prism, calculate the IC50 values.

[3] = biological target: T3, FASN thioesterase (Homo sapiens, UniProt P49327); assay: FP-PEG-TAMRA labeling of recombinant FASN thioesterase; assay type: binding; conditions: recombinant enzyme, 20 μM final, pH 7.8
T3 construct: label the active site of the FASN thioesterase and ACOT4
Protocol: as §1

[4] = test system: prostate cancer PC-3 cells; assay: De novo palmitate synthesis from 13C-glucose in whole cells (GC-MS); assay type: cell-based; conditions: for de novo palmitate synthesis/DMSO (%): 20 μM, [U-13C]-glucose 24 h, pH 7.8, relative to DMSO control
Protocol: The ability of compounds to block biosynthesis of palmitate in whole cells (prostate cancer PC-3 cells) was measured by feeding cells isotopically labeled glucose (^13C-glucose) and measuring the incorporation of ^13C into palmitate by GC-MS.
Prostate cancer PC-3 cell were incubated with 20 μM of FASN inhibitors and labeled with [U-13C]-glucose for 24 h, pH 7.8. The incorporation of ^13C into palmitate from labeled glucose was determined by extracting fatty acids and resolving them by GC-MS. The mass distributions for fatty acid methyl esters for C16:0 (palmitate) were corrected for isotope natural abundance, and the corrected isotope patterns were used to calculate the labeling of acetyl-CoA in palmitate based on a binomial probability distribution of the incorporation of labeled acetyl units into the fatty acid chain.

[5] = biological target: T4, FASN (Homo sapiens, UniProt P49327); assay: Competition with activity-based probe FP-PEG-TAMRA in PC-3 whole cell lysate: FASN; assay type: binding; conditions: PC-3 lysate, 20 μM final, pH 7.8
T4 construct: lysates of the prostate tumor line (PC3), which expresses FASN; endogenous in cells; host or cells: PC-3 prostate tumour cells (whole cell lysate)
Protocol: Studies were conducted to determine the selectivity of compound 16 for FASN over other human thioesterases. The ability of the compounds to bind the FASN holoenzyme was tested by assessing their ability to compete for the binding of an activity-based probe that covalently attaches to the active site of the FASN thioesterase. Thioesterases are members of the serine hydrolase family, which also includes a number of other types of enzymes including proteases, dipeptidyl peptidases, epoxide hydrolases, etc. To help assess the selectivity of compound 16, an activity-based probe polyethyleneglycol-6-carboxytetramethyl-rhodamine (FP-PEG-TAMRA) that binds covalently to the catalytic serine of all serine hydrolases was used. These studies were done by assessing the ability of compound 16 to compete for the binding of the activity-based probe in whole cell lysates. Several analogs of compound 16 were tested in this assay using lysates of the prostate tumor line (PC3), which expresses FASN, along with numerous other serine hydrolases. The PC-3 lysate was incubated with 8 different FASN inhibitors, including compounds 1, 16 and 97. Then the activity-based probe (FP-PEG-TAMRA) was added to each sample to label the serine hydrolases in the lysate.

[6] = test system: chymotrypsin; assay: Reaction Biology protease panel: chymotrypsin; assay type: biochemical; conditions: read-out: chymotrypsin inhibition (IC50)
Protocol: (§2) To further evaluate selectivity and identify any off-target effects, compound 37 was tested against a commercial panel of 34 binding assays (enzymes, receptors & ion channels) through Eurofins Panlabs. […] Compound 37 was also tested in a commercial panel of 17 diverse proteases (Reaction Biology).

[7] = Pharmacokinetic study, IP dosing; assay type: in vivo; conditions: mice, 10 mg/kg IP
Protocol: A pharmacokinetic (PK) study of Compound 37 dosed systemically (IP) in mice was conducted. At 10 mg/kg (IP) compound 37 attained plasma levels post dosing of >3 μM up to 30 min., >2 μM up to 1 h, and >1 μM up to 2 h.

[8] = test system: 17 diverse proteases; assay: Commercial panel of 17 diverse proteases (Reaction Biology); assay type: biochemical; conditions: up to 100 μM
Protocol: as §2

[9] = biological target: T2, FASN-TE; assay: Eadie-Hofstee enzymology analysis; assay type: biochemical
Protocol: Furthermore, using a classical enzymology analysis (Eadie-Hofstee) compound 37 was determined to have a non-competitive mode of inhibition (see FIG. 2).

[10] = test system: enzymes, receptors & ion channels; assay: Commercial panel of 34 binding assays (Eurofins Panlabs); conditions: 10 μM
Protocol: as §2

[11] = biological target: T5, CYP450 2C19 (Homo sapiens, UniProt P33261); assay: Eurofins Panlabs binding panel: CYP450 2C19; conditions: 10 μM
T5 construct: purchased Eurofins Panlabs
Protocol: as §2

[12] = test system: sodium channel; assay: Eurofins Panlabs binding panel: sodium channel; conditions: 10 μM
Protocol: as §2

T2 sequence (P49327 2207-2511 limits assumed): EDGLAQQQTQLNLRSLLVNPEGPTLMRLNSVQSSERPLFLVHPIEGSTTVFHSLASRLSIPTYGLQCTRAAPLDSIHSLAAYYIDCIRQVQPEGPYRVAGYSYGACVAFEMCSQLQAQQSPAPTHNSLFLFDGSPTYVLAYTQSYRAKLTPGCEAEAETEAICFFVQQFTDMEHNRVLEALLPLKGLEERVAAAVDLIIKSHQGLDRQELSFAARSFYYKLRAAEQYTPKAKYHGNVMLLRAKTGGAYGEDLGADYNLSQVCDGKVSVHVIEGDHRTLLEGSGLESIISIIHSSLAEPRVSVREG
T3 sequence (P49327 2207-2511 limits assumed): as above
T4 sequence (P49327 whole entry): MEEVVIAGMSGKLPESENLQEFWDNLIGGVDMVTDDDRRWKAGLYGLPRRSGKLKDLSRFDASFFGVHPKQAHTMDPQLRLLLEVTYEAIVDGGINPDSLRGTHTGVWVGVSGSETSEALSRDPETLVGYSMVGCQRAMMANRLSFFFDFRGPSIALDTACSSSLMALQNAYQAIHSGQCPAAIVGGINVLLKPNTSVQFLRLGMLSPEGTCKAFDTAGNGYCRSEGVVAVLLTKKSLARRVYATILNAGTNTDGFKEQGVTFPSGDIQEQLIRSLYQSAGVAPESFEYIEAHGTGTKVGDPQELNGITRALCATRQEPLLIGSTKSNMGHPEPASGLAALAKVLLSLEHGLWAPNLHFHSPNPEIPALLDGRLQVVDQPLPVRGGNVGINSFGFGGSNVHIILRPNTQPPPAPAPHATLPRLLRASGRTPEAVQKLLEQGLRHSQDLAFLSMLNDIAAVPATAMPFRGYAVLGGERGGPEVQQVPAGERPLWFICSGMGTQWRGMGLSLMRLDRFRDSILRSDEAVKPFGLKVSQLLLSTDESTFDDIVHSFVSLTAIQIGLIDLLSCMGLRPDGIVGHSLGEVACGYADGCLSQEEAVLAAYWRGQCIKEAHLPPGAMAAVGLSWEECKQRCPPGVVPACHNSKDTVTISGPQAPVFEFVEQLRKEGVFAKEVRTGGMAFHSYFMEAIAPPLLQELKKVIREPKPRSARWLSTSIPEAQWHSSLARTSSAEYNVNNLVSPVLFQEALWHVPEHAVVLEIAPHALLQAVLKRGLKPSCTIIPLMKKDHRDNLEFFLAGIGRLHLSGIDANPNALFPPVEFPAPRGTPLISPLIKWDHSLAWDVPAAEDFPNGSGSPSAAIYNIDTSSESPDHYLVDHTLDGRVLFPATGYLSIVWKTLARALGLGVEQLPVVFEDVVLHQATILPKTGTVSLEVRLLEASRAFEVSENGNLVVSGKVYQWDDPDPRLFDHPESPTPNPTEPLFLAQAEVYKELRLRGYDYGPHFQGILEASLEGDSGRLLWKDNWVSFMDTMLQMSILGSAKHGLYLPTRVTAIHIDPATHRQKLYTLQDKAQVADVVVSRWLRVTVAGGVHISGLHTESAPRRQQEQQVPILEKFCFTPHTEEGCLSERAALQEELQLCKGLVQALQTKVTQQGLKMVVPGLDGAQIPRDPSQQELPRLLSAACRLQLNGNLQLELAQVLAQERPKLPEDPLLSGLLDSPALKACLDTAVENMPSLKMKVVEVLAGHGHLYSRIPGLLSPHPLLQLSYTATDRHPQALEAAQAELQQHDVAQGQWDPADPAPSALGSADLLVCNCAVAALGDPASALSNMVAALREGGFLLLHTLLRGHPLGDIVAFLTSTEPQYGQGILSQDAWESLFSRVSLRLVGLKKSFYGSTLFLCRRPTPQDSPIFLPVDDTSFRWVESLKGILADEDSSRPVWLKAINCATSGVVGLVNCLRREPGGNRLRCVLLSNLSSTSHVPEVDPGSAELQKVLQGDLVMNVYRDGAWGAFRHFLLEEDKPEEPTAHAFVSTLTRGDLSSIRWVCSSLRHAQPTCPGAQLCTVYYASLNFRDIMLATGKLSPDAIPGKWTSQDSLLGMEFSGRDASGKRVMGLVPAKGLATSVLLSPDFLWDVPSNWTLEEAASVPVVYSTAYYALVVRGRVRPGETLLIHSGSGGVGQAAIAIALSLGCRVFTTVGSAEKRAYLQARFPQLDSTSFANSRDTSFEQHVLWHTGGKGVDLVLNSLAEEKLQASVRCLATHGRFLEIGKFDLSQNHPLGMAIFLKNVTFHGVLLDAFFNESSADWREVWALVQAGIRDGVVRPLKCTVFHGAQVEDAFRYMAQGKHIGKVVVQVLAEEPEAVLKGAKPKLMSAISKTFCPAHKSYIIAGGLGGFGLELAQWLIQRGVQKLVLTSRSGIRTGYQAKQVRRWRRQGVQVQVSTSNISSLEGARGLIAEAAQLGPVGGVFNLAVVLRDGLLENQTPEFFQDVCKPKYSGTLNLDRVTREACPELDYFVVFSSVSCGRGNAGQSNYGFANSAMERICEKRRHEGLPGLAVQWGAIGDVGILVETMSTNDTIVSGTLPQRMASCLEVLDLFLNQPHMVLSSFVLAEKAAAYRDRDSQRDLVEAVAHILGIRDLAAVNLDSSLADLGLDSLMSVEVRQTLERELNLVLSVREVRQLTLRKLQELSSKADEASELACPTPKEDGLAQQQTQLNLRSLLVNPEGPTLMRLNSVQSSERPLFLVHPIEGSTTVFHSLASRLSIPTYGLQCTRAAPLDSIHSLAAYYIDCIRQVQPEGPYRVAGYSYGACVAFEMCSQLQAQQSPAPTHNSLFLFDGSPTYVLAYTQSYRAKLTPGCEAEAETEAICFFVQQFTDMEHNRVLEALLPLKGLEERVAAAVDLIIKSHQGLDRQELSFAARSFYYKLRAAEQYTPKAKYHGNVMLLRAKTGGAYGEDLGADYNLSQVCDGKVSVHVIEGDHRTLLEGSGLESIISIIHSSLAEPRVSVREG
T5 sequence (P33261 whole entry): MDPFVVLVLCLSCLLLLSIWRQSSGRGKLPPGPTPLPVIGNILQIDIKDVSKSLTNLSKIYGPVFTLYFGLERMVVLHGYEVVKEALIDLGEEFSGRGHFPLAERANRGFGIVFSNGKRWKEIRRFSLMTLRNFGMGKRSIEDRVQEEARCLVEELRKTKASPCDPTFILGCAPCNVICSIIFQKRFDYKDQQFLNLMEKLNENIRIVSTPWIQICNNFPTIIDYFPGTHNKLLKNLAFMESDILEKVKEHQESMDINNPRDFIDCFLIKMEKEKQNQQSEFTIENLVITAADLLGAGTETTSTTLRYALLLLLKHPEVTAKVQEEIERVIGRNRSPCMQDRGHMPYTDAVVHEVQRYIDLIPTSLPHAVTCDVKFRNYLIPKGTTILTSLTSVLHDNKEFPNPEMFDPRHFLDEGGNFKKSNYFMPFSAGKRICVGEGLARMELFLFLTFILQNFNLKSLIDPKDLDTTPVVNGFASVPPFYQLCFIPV

SMILES	pIC50 [2]	other results
CCCCC(=O)Nc1nc(-c2ccc(S(=O)(=O)N3CCC(C)CC3)cc2)cs1 [Compound 22]	6.30	activity labeling of ACOT4 [1]: without effect; binding of FP-TAMRA to the active site of the FASN thioesterase [3]: blocked the binding of FP-TAMRA
Cc1ccc(NC(=O)Cc2nc(-c3ccc(S(=O)(=O)N4CCOCC4)cc3)cs2)cc1 [Compound 97]	≤ 4.10	activity in the enzyme-based assay ([2]; negative control): no activity; inhibition of palmitate synthesis in whole cells [4]: did not inhibit palmitate synthesis; de novo palmitate synthesis/DMSO (%) [4]: 95%; inhibition of FASN (blocking of FP-TAMRA binding) [5]: did not
CCCCC(=O)Nc1nc(-c2ccc(S(=O)(=O)N3CCOCC3)cc2)cs1 [Compound 1]	6.70 and 6.69 and 6.26	activity labeling of ACOT4 [1]: without effect; inhibition of palmitate synthesis in whole cells [4]: inhibitory activity; de novo palmitate synthesis/DMSO (%) [4]: 40%; inhibition of FASN (blocking of FP-TAMRA binding) [5]: showed inhibition of FASN; binding of FP-TAMRA to the active site of the FASN thioesterase [3]: blocked the binding of FP-TAMRA
CCC(C)C(=O)Nc1nc(-c2ccc(S(=O)(=O)N(CC)CC)cc2)cs1 (stereo not shown) [Compound 37]	6.52	pIC50 [6]: 5.77; plasma levels post dosing ([7]; up to 30 min): > 3000 nM; plasma levels post dosing ([7]; up to 1 h): > 2000 nM; plasma levels post dosing ([7]; up to 2 h): > 1000 nM; activity labeling of ACOT4 [1]: without effect; interactions in panel of 17 proteases [8]: Only one interaction; inhibition of palmitate synthesis in whole cells [4]: dose-dependently inhibits palmitate synthesis; mode of inhibition [9]: non-competitive; binding interactions >50% in panel of 34 binding assays [10]: Only two binding interactions>50%; binding interaction [11]: 50%; binding of FP-TAMRA to the active site of the FASN thioesterase [3]: blocked the binding of FP-TAMRA; binding interaction [12]: 74%
CC(C)CC(=O)Nc1nc(-c2ccc(S(=O)(=O)N3CCOCC3)cc2)cs1 [Compound 7]	4.94	–
CC(=O)Nc1nc(-c2ccc(S(=O)(=O)N3CCOCC3)cc2)cs1 [Compound 9]	4.87	–
CCCCCC(=O)Nc1nc(-c2ccc(S(=O)(=O)N3CCCC3)cc2)cs1 [Compound 50]	6.85	–
CCC(CC)C(=O)Nc1nc(-c2ccc(S(=O)(=O)N3CCC(C)CC3)cc2)cs1 [Compound 61]	5.74	–
CCN(CC)S(=O)(=O)c1ccc(-c2csc(-c3ccc(Br)cc3C)n2)cc1 [Compound 106]	≤ 4.10	–
CCCCC(=O)Nc1nc(-c2ccc(S(=O)(=O)N3CCCC3)cc2)cs1 [Compound 8]	6.70	–
CCN(CC)S(=O)(=O)c1ccc(-c2csc(NC(=O)C3CCCC3)n2)cc1 [Compound 36]	5.92	–
O=S(=O)(c1ccc(-c2csc(-c3cccnc3)n2)cc1)N1CCCC1 [Compound 69]	5.82	–
CCCCCC(=O)Nc1nc(-c2ccc(S(=O)(=O)N3CCC(C)CC3)cc2)cs1 [Compound 57]	6.12	–
CCC(=O)Nc1nc(-c2ccc(S(=O)(=O)N3CCCC3)cc2)cs1 [Compound 26]	6.19	–
CCCCCCC(=O)Nc1nc(-c2ccc(S(=O)(=O)N3CCCC3)cc2)cs1 [Compound 51]	6.07	–
O=S(=O)(c1ccc(-c2csc(Nc3ccc(F)cc3)n2)cc1)N1CCCC1 [Compound 80]	4.83	–
CCCCCCCC(=O)Nc1nc(-c2ccc(S(=O)(=O)N3CCCCC3C)cc2)cs1 (stereo not shown) [Compound 47]	5.37	–
O=S(=O)(c1ccc(-c2csc(-c3cccnc3)n2)cc1)N1CCCCC1 [Compound 64]	5.57	–
CCCCC(=O)Nc1nc(-c2ccc(S(=O)(=O)N(CC)CC)cc2)cs1 [Compound 32]	6.76	–
CCN(CC)S(=O)(=O)c1ccc(-c2csc(Cc3cccc(C(F)(F)F)c3)n2)cc1 [Compound 108]	≤ 4.10	–
O=C(Nc1nc(-c2ccc(S(=O)(=O)N3CCOCC3)cc2)cs1)C1CCCCC1 [Compound 20]	< 4.10	–
O=C(Nc1nc(-c2ccc(S(=O)(=O)N3CCOCC3)cc2)cs1)C1CC1 [Compound 17]	5.28	–
CCN(CC)S(=O)(=O)c1ccc(-c2csc(NC(=O)C3CC3)n2)cc1 [Compound 34]	5.64	–
